These results are taken from PMC11344719, “Peptidomimetic inhibitors of the VEGF-A165/NRP-1 complex obtained by modification of the C-terminal arginine” (Amino Acids, 2024).

The IC50 is the concentration that inhibits the measured activity by half. Broadly, the Kd is the free concentration of one partner at which half of the binding sites on the other are occupied at equilibrium, for simple one-to-one binding. Usually inhibition stands for the relative decrease from the control value, in per cent.

Data set [1] deals with T1, VEGF-A165/NRP-1 complex (Homo sapiens, UniProt O14786).
T1 construct: purchased BioLegend (NRP-1); Abcam (biotinylated VEGF-A165)
T1 sequence (O14786 22-641 limits assumed): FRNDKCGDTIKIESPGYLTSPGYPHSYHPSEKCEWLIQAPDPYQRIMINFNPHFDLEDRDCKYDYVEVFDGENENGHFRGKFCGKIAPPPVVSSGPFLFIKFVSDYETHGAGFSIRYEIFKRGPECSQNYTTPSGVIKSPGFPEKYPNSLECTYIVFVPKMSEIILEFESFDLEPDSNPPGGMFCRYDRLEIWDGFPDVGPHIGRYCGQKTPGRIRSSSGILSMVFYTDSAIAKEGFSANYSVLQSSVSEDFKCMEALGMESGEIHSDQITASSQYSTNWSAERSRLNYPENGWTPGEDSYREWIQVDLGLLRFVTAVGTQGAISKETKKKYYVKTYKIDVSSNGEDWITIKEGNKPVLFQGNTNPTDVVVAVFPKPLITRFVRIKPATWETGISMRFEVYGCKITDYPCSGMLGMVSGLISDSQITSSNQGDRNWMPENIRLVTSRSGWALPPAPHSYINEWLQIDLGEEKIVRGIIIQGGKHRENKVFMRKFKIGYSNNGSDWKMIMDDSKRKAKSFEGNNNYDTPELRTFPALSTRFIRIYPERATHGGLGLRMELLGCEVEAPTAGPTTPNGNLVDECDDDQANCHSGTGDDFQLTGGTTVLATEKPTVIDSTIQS
As to the kind of experiment: competitive ELISA: inhibition of (bt)-VEGF-A165 binding to NRP-1. The note with it: recombinant human NRP-1; mean ± SD of three independent experiments; tested in the concentrations range 100–3.12 μM. How it is done:
Inhibitory activity of the synthesized peptides was measured by a competitive ELISA test, following a protocol similar to the one previously described (Puszko et al. [2019]). […] Nonspecific binding was blocked with 0.5% BSA (BioShop, Canada) in PBS (Bioshop, Canada). Then, 50 μl peptide in PBS in the selected concentrations and 50 μl (400 ng/ml) human […] VEGF-A165 (Abcam, Cambridge, UK) in PBS containing 4 μg/ml heparin (Bioshop, Canada) were added. After 2 h of incubation at RT, the plate was washed and treated with ECL Streptavidin-Horseradish Peroxidase conjugate (GE Healthcare, Little Chalfont, UK) in PBS (1:100) for 45 min. After the final wash the chemiluminescence was quantified immediately after addition of 100 μl chemiluminescent substrate (SuperSignal ELISA Pico Chemiluminescent Substrate; Pierce Biotechnology, Rockford, IL, USA). Wells incubated with (bt)-VEGF-A165 served as a positive control (P), while wells not-coated with NRP-1 were used as a negative control (NS). […] Half-maximal inhibitory concentration (IC50, [μM]) values (mean ± SD of three independent experiments were determined by nonlinear regression analysis (log(inhibitor) vs. normalized response-variable slope) generated in GraphPad Prism 9.0.0 program (Graph Pad, San Diego, CA, USA). In order to verify the accuracy of the design assumptions, a modified competitive enzyme-linked immunosorbent assay (ELISA) was used to evaluate the inhibitory activity of the designed peptidomimetics against VEGF-A165/NRP-1 complex formation. In addition to the parent compounds (1 and 2), heptapeptide […] was used for the sake of comparison.
A general note: ELISA stands for enzyme-linked immunosorbent assay.

Details of data set [2]: method as in Tymecka et al. [2018]. The note with it: ref Tymecka et al. [2018]; cited from earlier work.
In data set [3] the target is NRP1-b1. Also noted: method as in Mota et al. 2018. The note with it: SPR; ref Mota et al. 2018; cited from earlier work. Background: In SPR one partner is held on a chip, and binding of the other changes the refractive index at the surface.
For data set [4], the system named is PAE/NRP1 cells. Also noted: method as in Jarvis et al. 2010. The note with it: 125I-VEGF, ref Jarvis et al. 2010, cited from earlier work.
Data set [5] has as its system recombinant rat NRP-1/Fc chimera. Also noted: method as in Starzec et al. 2007. The note with it: 125I-VEGF, ref Starzec et al. 2007; cited from earlier work.

Square brackets hold non-standard residues; d marks the D form. Ends that are not written are not given here. Peptide text beside a SMILES is read from it. Phe(4-CH2NH2) = NCc1ccc(C[C@H](N)C(=O)O)cc1; hArg = N=C(N)NCCCC[C@H](N)C(=O)O; Cit = NC(=O)NCCC[C@H](N)C(=O)O; Agb = N=C(N)NCC[C@H](N)C(=O)O; Agp = N=C(N)NC[C@H](N)C(=O)O; Dab = NCC[C@H](N)C(=O)O; Dap = NC[C@H](N)C(=O)O

On to `N=C(N)NCCCC[C@H](N)C(=O)NCCCC[C@H](N)C(=O)N[C@@H](CN)C(=O)N1CCC[C@H]1C(=O)N[C@@H](CCCNC(=N)N)C(=O)O` [Compound 1, Lys(Har)-Dap-Pro-Arg] (H-K(hArg)[Dap]PR-OH), for which the IC50 in data set [1] was 8.4 ± 1.6 µM. For the same compound, in data set [2], the “t½ (stability)” value is on record as more than 24 h.
As for `N=C(N)NCCCC[C@H](N)C(=O)NCCCC[C@H](N)C(=O)N[C@@H](CCN)C(=O)N1CCC[C@H]1C(=O)N[C@@H](CCCNC(=N)N)C(=O)O` [Compound 2, Lys(Har)-Dab-Pro-Arg] (H-K(hArg)[Dab]PR-OH), the IC50 in data set [1] was determined as 4.7 ± 0.6 µM. Moreover, in data set [2], the “t½ (stability)” value is more than 24 h.
As to `N=C(N)NCCCC[C@H](NC(=O)[C@@H]1CCCN1C(=O)[C@H](CN)NC(=O)[C@@H](N)CCCCNC(=O)[C@@H](N)CCCCNC(=N)N)C(=O)O` [Compound 3, Lys(Har)-Dap-Pro-Har] (H-K(hArg)[Dap]P[hArg]-OH), the IC50 in data set [1] was 29.2 ± 1.8 µM.
With `N=C(N)NCCCC[C@H](NC(=O)[C@@H]1CCCN1C(=O)[C@H](CCN)NC(=O)[C@@H](N)CCCCNC(=O)[C@@H](N)CCCCNC(=N)N)C(=O)O` [Compound 4, Lys(Har)-Dab-Pro-Har] (H-K(hArg)[Dab]P[hArg]-OH), in data set [1], the IC50 was 14.3 ± 2.3 µM.
Take `N=C(N)NCCCC[C@H](N)C(=O)NCCCC[C@H](N)C(=O)N[C@@H](CN)C(=O)N1CCC[C@H]1C(=O)N[C@@H](CCNC(=N)N)C(=O)O` [Compound 5, Lys(Har)-Dap-Pro-Agb] (H-K(hArg)[Dap]P[Agb]-OH): in data set [1], the IC50 is 87.5 ± 10.3 µM.
For the compound `N=C(N)NCCCC[C@H](N)C(=O)NCCCC[C@H](N)C(=O)N[C@@H](CCN)C(=O)N1CCC[C@H]1C(=O)N[C@@H](CCNC(=N)N)C(=O)O` [Compound 6, Lys(Har)-Dab-Pro-Agb] (H-K(hArg)[Dab]P[Agb]-OH), the concentration for half-maximal inhibition (IC50) in data set [1] was 106 ± 17.4 µM.
With `N=C(N)NCCCC[C@H](N)C(=O)NCCCC[C@H](N)C(=O)N[C@@H](CN)C(=O)N1CCC[C@H]1C(=O)N[C@@H](CNC(=N)N)C(=O)O` [Compound 7, Lys(Har)-Dap-Pro-Agp] (H-K(hArg)[Dap]P[Agp]-OH), in data set [1], the IC50 came to 148 ± 45.9 µM.
For the compound `N=C(N)NCCCC[C@H](N)C(=O)NCCCC[C@H](N)C(=O)N[C@@H](CCN)C(=O)N1CCC[C@H]1C(=O)N[C@@H](CNC(=N)N)C(=O)O` [Compound 8, Lys(Har)-Dab-Pro-Agp] (H-K(hArg)[Dab]P[Agp]-OH), the IC50 in data set [1] turned out to be 165 ± 21.1 µM.
Turning to `N=C(N)NCCCC[C@H](N)C(=O)NCCCC[C@H](N)C(=O)N[C@@H](CN)C(=O)N1CCC[C@H]1C(=O)N[C@@H](CCCNC(N)=O)C(=O)O` [Compound 9, Lys(Har)-Dap-Pro-Cit] (H-K(hArg)[Dap]P[Cit]-OH), the IC50 in data set [1] was found to be 170 ± 55.6 µM.
On the same count and under the same terms, as for `N=C(N)NCCCC[C@H](N)C(=O)NCCCC[C@H](N)C(=O)N[C@@H](CCN)C(=O)N1CCC[C@H]1C(=O)N[C@@H](CCCNC(N)=O)C(=O)O` [Compound 10, Lys(Har)-Dab-Pro-Cit] (H-K(hArg)[Dab]P[Cit]-OH), the figure is 193 ± 20.6 µM; as for `N=C(N)NCCCC[C@H](N)C(=O)NCCCC[C@H](N)C(=O)N[C@@H](CN)C(=O)N1CCC[C@H]1C(=O)N[C@@H](Cc1ccc(CN)cc1)C(=O)O` [Compound 11, Lys(Har)-Dap-Pro-Phe(4-CH2-NH2)] (H-K(hArg)[Dap]P[Phe(4-CH2NH2)]-OH), 22.8 ± 5.9 µM.
For the compound `N=C(N)NCCCC[C@H](N)C(=O)NCCCC[C@H](N)C(=O)N[C@@H](CCN)C(=O)N1CCC[C@H]1C(=O)N[C@@H](Cc1ccc(CN)cc1)C(=O)O` [Compound 12, Lys(Har)-Dab-Pro-Phe(4-CH2-NH2)] (H-K(hArg)[Dab]P[Phe(4-CH2NH2)]-OH), the IC50 in data set [1] is 19.8 ± 1.8 µM.
On to `CC(C)(C)OC(=O)N[C@@H](CCCN=C(N)N)C(=O)O` [Compound D9, Nα-Boc-Arg-OH], for which the Kd in data set [3] was 3 µM.
Turning to `NC(N)=NCCC[C@H](NC(=O)OCc1ccccc1)C(=O)O` [Compound D10, Nα-Cbz-Arg-OH], the Kd in data set [3] is 17 µM.
As for `NC(N)=NCCC[C@H](NC(=O)c1ccccc1)C(=O)O` [Compound D11, Nα-benzoyl-Arg-OH], the equilibrium dissociation constant (Kd) in data set [3] is 24 µM.
`NC(N)=NCCC[C@H](NC(=O)c1sccc1NS(=O)(=O)c1cccc2nsnc12)C(=O)O` [Compound D12]: in data set [4], the “inhibition at 100 μM” value was 99% and the IC50 was 8 µM.
Take “ATWLPPR [Compound A7R, Ala-Thr-Trp-Leu-Pro-Pro-Arg]”: in data set [1], the IC50 was found to be 11.3 ± 3.2 µM.
Regarding “Ala-Thr-Trp-Leu-Pro-Pro6 (ATWLPP; printed: Ala-Thr-Trp-Leu-Pro-Pro) [Compound D2]”, the “inhibition at 100 μM” value in data set [5] is 18%.
Take “Ala-Thr-Trp-Leu-Pro-Pro-Ala7 (ATWLPPA; printed: Ala-Thr-Trp-Leu-Pro-Pro-Ala) [Compound D3]”: the “inhibition at 100 μM” value in data set [5] is listed as 17%.
As for “Ala-Thr-Trp-Leu-Pro-Pro-Lys7 (ATWLPPK; printed: Ala-Thr-Trp-Leu-Pro-Pro-Lys) [Compound D4]”, in data set [5], the “inhibition at 100 μM” value is reported as 20%.
As for “Ala-Thr-Trp-Leu-Pro-Pro-Lys7-Ala8 (ATWLPPK; C-terminal Ala8; printed: Ala-Thr-Trp-Leu-Pro-Pro-Lys) [Compound D5]”, the “inhibition at 100 μM” value in data set [5] is reported as 18%.
With KPA[dR] [Compound D7], in data set [4], the “inhibition at 100 μM” value is reported as 22%.
For the compound “Lys-Pro-Ala-Arg (KPAR; printed: Lys-Pro-Ala-Arg) [Compound D6]”, in data set [4], the “inhibition at 100 μM” value was 83% and the IC50 is 30 µM.
In the case of “Lys-Pro-Ala-Lys (KPAK; printed: Lys-Pro-Ala-Lys) [Compound D8]”, the “inhibition at 100 μM” value in data set [4] is 22%.
